Test results taken from patent US20120171201A1.

Experiments:
[1] = Solubility in aqueous saline solution
[2] = Pharmacokinetics in tumor free Balb/C mice; format: in vivo; conditions: Released from Compound 9; single injection 20 mg/kg Compound 9, Balb/C mice, plasma
Description: Pharmacokinetic analysis was done using non-compartmental analysis (WinNonlin).

Structure (SMILES): CCc1c2c(nc3ccc(O)cc13)-c1cc3c(c(=O)n1C2)COC(=O)[C@]3(O)CC
- Solubility in Saline [1]: ^a7-ethyl-10-hydroxycamptothecin is not soluble in saline.
- Terminal t 1/2 [2]: 14.2 h
